A word on the inhibition: it is the share of the control response that was lost under treatment.

Here are results for 5 compounds from patent publication US9145351B2, “Azole derivatives, methods for producing the same, intermediate thereof, agro-horticultural agents” (KUREHA CORPORATION, priority 2009, dated 2015).

What all share (type): cell-based
Assay [1] deals with Pseudocercoporella herpotrichoides. In words: Plate medium fungicidal assay, wheat eye spot P.h (Experimental Example 5). Particulars: for inhibition at 5 µg/mL / inhibition at 50 µg/mL: plate medium, read-out: growth inhibition grade P.h; for inhibition at 5 µg/mL: 5 mg/L; for inhibition at 50 µg/mL: 50 mg/L. Here is the method: (§1) In this Experimental Example, the fungicidal effects of the inventive compounds on various phytopathogenic fungi for plants and hazardous microorganism for industrial materials were examined by the methods described below. Each inventive compound was dissolved in 2 ml of dimethyl sulfoxide. 0.6 ml of this solution was added to 60 nil of a PDA medium (potato dextrose agar medium) at about 60 degrees C., which was mixed thoroughly in a 100-ml conical flask, and poured into a dish, where it was solidified, thereby obtaining a plate medium containing the inventive compound at 50 mg/L and 5 mg/L. On the other hand, a subject microorganism previously cultured on a plate medium was cut out using a cork borer whose diameter was 4 mm, and inoculated to the test compound-containing plate medium described above. […] The growth degree of the microorganism on the test compound-containing plate medium thus observed was compared with the growth degree of the microorganism in the untreated group, and % mycelial growth inhibition was calculated by the following equation. R=100(dc−dt)/dc wherein R=% mycelial extension inhibition, dc=flora diameter in untreated plate, dt=flora diameter in treated plate. The results obtained as described above were evaluated as one of the 5 grades according to the following criteria. […] Wheat eye spot (Pseudocercoporella herpotrichoides) P.h

For another assay, the system named is Botritis cinerea. In words: Plate medium fungicidal assay, gray mold B.c (Experimental Example 5). Particulars: for inhibition at 5 µg/mL / inhibition at 50 µg/mL: plate medium, read-out: growth inhibition grade B.c; for inhibition at 5 µg/mL: 5 mg/L; for inhibition at 50 µg/mL: 50 mg/L. Here is the method:
as §1, with “Gray mold (Botritis cinerea) B.c” for “Wheat eye spot (Pseudocercoporella herpotrichoides) P.h”

For a further assay, the system named is Sclerotinia sclerotiorum. The experiment in a line: Plate medium fungicidal assay, Sclerotinia rot S.s (Experimental Example 5). Particulars: for inhibition at 5 µg/mL / inhibition at 50 µg/mL: Sclerotinia sclerotiorum, plate medium, read-out: growth inhibition grade S.s; for inhibition at 5 µg/mL: 5 mg/L; for inhibition at 50 µg/mL: 50 mg/L. Here is the method: as §1, with “Sclerotinia rot (Sclerotinia sclerotiorum) S.s” for “Wheat eye spot (Pseudocercoporella herpotrichoides) P.h”

For the next assay, the system named is Fusarium graminearum. In words: microbe, parasite or virus in culture. To be noted: for inhibition at 5 µg/mL / inhibition at 50 µg/mL: Fusarium graminearum, read-out: growth inhibition grade F.g.
For another assay, the system named is Giberella fujikuroi. In words: Plate medium fungicidal assay, rice bakanae disease G.f (Experimental Example 5). To be noted: for inhibition at 5 µg/mL / inhibition at 50 µg/mL: plate medium, read-out: growth inhibition grade G.f; for inhibition at 5 µg/mL: 5 mg/L; for inhibition at 50 µg/mL: 50 mg/L. Here is the method: as §1, with “Rice bakanae disease (Giberella fujikuroi) G.f” for “Wheat eye spot (Pseudocercoporella herpotrichoides) P.h”

The next assay has as its system Rhynchosporium secalis. The experiment in a line: Plate medium fungicidal assay, barley leaf blotch R.sec (Experimental Example 5). Particulars: for inhibition at 5 µg/mL / inhibition at 50 µg/mL: Rhynchosporium secalis, plate medium, read-out: growth inhibition grade R.sec; for inhibition at 5 µg/mL: 5 mg/L; for inhibition at 50 µg/mL: 50 mg/L. The procedure: as §1, with “Barley leaf blotch (Rhynchosporium secalis) R.sec” for “Wheat eye spot (Pseudocercoporella herpotrichoides) P.h”

The mark [2] stands for this setting: plate medium containing compound at 5 mg/L.
Where [3] appears, read: plate medium containing compound at 50 mg/L.

As for `C[C@]1(CCl)CC[C@@H](Cc2ccc(Cl)cc2)[C@]1(O)Cn1ccnc1` (racemic) [Compound I-244, (1RS,2SR,5SR)-5-(4-chlorobenzyl)-2-chloromethyl-2-methyl-1-imidazol-1-ylmethylcyclopentanol], the inhibition at 5 µg/mL in assay [1] was more than 80%; in the assay with Botritis cinerea, 60 to 80%; with Sclerotinia sclerotiorum, more than 80%; in the assay with Fusarium graminearum, more than 80%; in the assay on Giberella fujikuroi, more than 80%; with Rhynchosporium secalis it was more than 80%. The inhibition at 50 µg/mL (in assay [1]; with Botritis cinerea; in the assay on Sclerotinia sclerotiorum; with Fusarium graminearum; with Giberella fujikuroi; with Rhynchosporium secalis) was more than 80% throughout.

Consider `C[C@]1(CCl)CC[C@@H](Cc2ccc(-c3ccccc3)cc2)[C@]1(O)Cn1cncn1` (relative stereo) [Compound I-82], for which the “Growth inhibition grade, P.h” value in assay [1] (setting [2]) and in assay [1] (setting [3]) was 5 (% Mycerial growth inhibition of 80% or higher) each time. In addition, the “Growth inhibition grade, B.c” value with Botritis cinerea (setting [2]) and with Botritis cinerea (setting [3]) was 5 (% Mycerial growth inhibition of 80% or higher) in each case. The “Growth inhibition grade, S.s” value with Sclerotinia sclerotiorum (setting [2]) and in the assay on Sclerotinia sclerotiorum (setting [3]) was 5 (% Mycerial growth inhibition of 80% or higher) in each case. Further, the “Growth inhibition grade, F.g” value in the assay on Fusarium graminearum (setting [2]) and with Fusarium graminearum (setting [3]) was 5 (% Mycerial growth inhibition of 80% or higher) throughout. In addition, the “Growth inhibition grade, G.f” value in the assay with Giberella fujikuroi (setting [2]) and in the assay with Giberella fujikuroi (setting [3]) was 5 (% Mycerial growth inhibition of 80% or higher) throughout. Moreover, the “Growth inhibition grade, R.sec” value in the assay on Rhynchosporium secalis (setting [2]) and in the assay on Rhynchosporium secalis (setting [3]) was 5 (% Mycerial growth inhibition of 80% or higher) each time.

For the compound `C[C@]1(CBr)CC[C@@H](Cc2ccccc2)[C@]1(O)Cn1cncn1` (racemic) [Compound I-602, (1RS,2SR,5SR)-2-bromomethyl-5-benzyl-2-methyl-1-(1H-1,2,4-triazol-1-ylmethyl)cyclopentanol], the inhibition at 5 µg/mL is 40 to 60% in assay [1]; 60 to 80% in the assay on Botritis cinerea; more than 80% with Sclerotinia sclerotiorum; more than 80% in the assay with Fusarium graminearum; more than 80% with Giberella fujikuroi; more than 80% in the assay on Rhynchosporium secalis. Also, the inhibition at 50 µg/mL (in assay [1]; with Botritis cinerea; in the assay with Sclerotinia sclerotiorum; with Fusarium graminearum; in the assay with Giberella fujikuroi; in the assay with Rhynchosporium secalis) was more than 80% each time.

Regarding `C[C@]1(CCl)CC[C@H](Cc2ccc(Cl)cc2)[C@]1(O)Cn1cncn1` (racemic) [Compound I-301, (1RS,2SR,5RS)-5-(4-chlorobenzyl)-2-chloromethyl-2-methyl-1-[1,2,4]triazol-1-ylmethylcyclopentanol], the inhibition at 5 µg/mL (in assay [1]; with Botritis cinerea; in the assay with Sclerotinia sclerotiorum; in the assay with Fusarium graminearum; in the assay on Giberella fujikuroi; in the assay on Rhynchosporium secalis) was more than 80% each time. For the same compound, the inhibition at 50 µg/mL (in assay [1]; in the assay on Botritis cinerea; in the assay with Sclerotinia sclerotiorum; in the assay on Fusarium graminearum; in the assay on Giberella fujikuroi; with Rhynchosporium secalis) was more than 80% each time.

As to `C[C@]1(CCl)CC[C@@H](Cc2ccc(OC(F)(F)F)cc2)[C@]1(O)Cn1cncn1` (relative stereo) [Compound I-79], the “Growth inhibition grade, P.h” value in assay [1] (setting [2]) and in assay [1] (setting [3]) was 5 (% Mycerial growth inhibition of 80% or higher) each time. For the same compound, the “Growth inhibition grade, B.c” value with Botritis cinerea (setting [2]) and with Botritis cinerea (setting [3]) was 5 (% Mycerial growth inhibition of 80% or higher) each time. Also, the “Growth inhibition grade, S.s” value in the assay on Sclerotinia sclerotiorum (setting [2]) and in the assay with Sclerotinia sclerotiorum (setting [3]) was 5 (% Mycerial growth inhibition of 80% or higher) throughout. In addition, the “Growth inhibition grade, F.g” value in the assay with Fusarium graminearum (setting [2]) and in the assay with Fusarium graminearum (setting [3]) was 5 (% Mycerial growth inhibition of 80% or higher) in each case. Further, the “Growth inhibition grade, G.f” value in the assay on Giberella fujikuroi (setting [2]) and in the assay on Giberella fujikuroi (setting [3]) was 5 (% Mycerial growth inhibition of 80% or higher) each time. Moreover, the “Growth inhibition grade, R.sec” value in the assay on Rhynchosporium secalis (setting [2]) and in the assay with Rhynchosporium secalis (setting [3]) was 5 (% Mycerial growth inhibition of 80% or higher) throughout.
